According to US20240384350A1, “METHODS OF TREATING CANCER WITH KINASE INHIBITORS” (BOARD OF REGENTS, THE UNIVERSITY OF TEXAS SYSTEM, priority 2021, published 2024):

Tested on: EGFR mutations spanning exons 18-21
Experiment: Ba/F3 panel of 76 cell lines expressing EGFR mutations, selectivity over WT EGFR by structure-function group
Type: cell-based
Settings: Ex20ins mutations, FIG. 5A
Excerpt: To determine the effect of EGFR mutations on TKI sensitivity, a panel of 76 cell lines expressing EGFR mutations spanning exons 18-21 was generated and screened against 18 known EGFR inhibitors representing 1st (non-covalent), 2nd (covalent), and 3rd (covalent, T790M targeting) generation TKIs, and compounds under investigation for Ex20ins. […] For the various mutations, structure-function based groups were more predictive of drug sensitivity than exon based groups as determined by spearmen correlations (p<0.0001, FIG. 1F, FIG. 2). […]
After 48-72 hours of transduction, 2 μg/ml puromycin (Invitrogen) was added to Ba/F3 cell lines in complete RPMI. […] Plates were incubated for a minimum of 10 minutes, and bioluminescence was determined using a FLUOstar OPTIMA plate reader (BMG LABTECH). […] Statistical differences between groups were determined by ANOVA as described in the figure legends. […]

**Q.** For `CN(C)C/C=C/C(=O)Nc1cc2c(Nc3ccc(Cl)c(Br)c3)ncnc2cn1` [Tarlox-TKI], which sensitivity in vitro is on record?
**A.** Its sensitivity in vitro is “sensitive”.
